Test results reported in article PMC11483813, “Bombesin-Targeted Delivery of β-Carboline-Based Ir(III) and Ru(II) Photosensitizers for a Selective Photodynamic Therapy of Prostate Cancer” (Inorganic Chemistry, 2024).

How the values were obtained:
[1] = system: A549 lung cancer cells; assay type: cell-based, human; conditions: A549; 4 h incubation, kept in the dark 1 h; MTT after 48 h; read-out: IC50 A549 Dark
Description: (§1) The effect of Ir-H, Ir-Me, Ru-H, and Ru-Me on cell viability was evaluated in the A549 lung cancer and PC-3 prostate cancer cell lines by MTT assays. PC-3 cells were specifically chosen due to their high expression levels of GRPR on their surface, allowing for further evaluation of the activity of the BN3-derived metallopeptides Ir-BN and Ru-BN.[38],[51] In contrast, A549 cells express low levels of GRPR.[52] MRC-5 fibroblasts were used as a nonmalignant cell model.[53]Table 3 reports the half maximal inhibitory concentration (IC50) values obtained after treating the cells either under dark conditions or upon exposure to blue light at a dose of 24.1 J cm^–2. The photocytotoxicity index (PI), defined as the IC50,dark/IC50,light, is provided for each compound.
(§2) Stock solutions of the complexes and metallopeptides were initially prepared at a concentration of 5 mM in DMSO and then diluted in sterile distilled water to achieve a final concentration of 1 mM, with a resulting DMSO concentration of 20% v/v. Cells were seeded into 96-well plates at a density of 2500 cells/well for A549, 3500 cells/well for PC-3, and 5500 cells/well for MRC-5. Following 24 h of incubation for attachment, cells were treated in triplicate with freshly prepared working solutions of the compounds in the culture medium at concentrations ranging from 0.001 to 100 μM. The maximum DMSO concentration in the working solutions was 2% (v/v). The working concentrations for each compound were adjusted based on their cytotoxicity. Following a 4 h incubation period to allow internalization of the compounds into the cells, the plates were kept in dark conditions or exposed to blue (460 nm) or red (655 nm) light for 1 h using an LED system (LuxLight), providing a total dose of 24.1 J cm^–2. All plates were incubated in the dark for an additional 43 h. Cells were then washed with phosphate-buffered saline (PBS), and 100 μL of fresh culture medium containing 10% of 3-[4,5-dimethylthiazol-2-yl]-2,5 diphenyl tetrazolium bromide (MTT) solution (0.5 mg/mL) (Sigma- Aldrich) was added to each well. After a 2 h incubation period, the formazan crystals were dissolved in DMSO, and the absorbance was measured at 570 nm using a Multiscan Plate Reader (Synergy 4, Biotek, Winooski, USA). The concentration causing a 50% reduction in cell viability (IC50) was determined for each compound with the Gen5 software (BioTek). At least three independent experiments were conducted for each compound.

[2] = system: MRC-5 fibroblasts; assay type: cell-based, human; conditions: MRC-5; 4 h incubation, kept in the dark 1 h; MTT after 48 h; read-out: IC50 MRC-5 Dark
Description: as §1, §2

[3] = system: PC-3 prostate cancer cells; assay type: cell-based, human; conditions: PC-3; 4 h incubation, kept in the dark 1 h; MTT after 48 h; read-out: IC50 PC-3 Dark
Description: as §1, §2

[4] = parameters: method as in earlier work; conditions: standard reference; H2O:DMSO (55:45); ref 6 (SI); cited from earlier work

Row | SMILES | IC50 [1] | IC50 [2] | IC50 [3] | singlet oxygen quantum yield (ΦΔ) [4]
1 | N.N.[Cl][Pt][Cl] [Cisplatin, reference compound] | 5.99 ± 1.2 µM | 5.34 ± 0.38 µM | 5.55 ± 0.97 µM | 
2 | O=C([O-])c1c(Cl)c(Cl)c(Cl)c(Cl)c1-c1c2cc(I)c(=O)c(I)c-2oc2c(I)c([O-])c(I)cc12.[Na+].[Na+] [rose bengal] |  |  |  | 0.75
